What was measured:
Assay in all cases: Cell line panel 2 high-content screen
Assay type in all cases: cell-based
SW837 = settings: Homo sapiens; SW837 (intestine); 72 hours
Experimental: (§1) To support clinical development and identify potential biomarkers of tumor sensitivity or resistance, two large cancer cell line panels (Panel 1, N=653 (McDermott et al. (2007) PNAS 104:19936-19941); Panel 2, N=240 (O'Day et al. (2010) Fourth AACR International Conference on Molecular Diagnostics in Cancer Therapeutic Development)) were treated with MLN4924 and cell viability data (IC50, EC50, and POC—Percentage of Control) were generated.
(§2) Panel 2 (Ricerca Biosciences, Inc., Bothell, Wash.). MLN4924 was added in half-log dilutions for 10 concentrations and treated for 72 hours. High-content cell screening by fluorescence microscopy included image analysis to generate several types of data. Results included EC50 values (after measurement of cell numbers, the EC50 concentration was calculated from the inflection point of a curve of percent of control (POC) against log of MLN4924 concentration), IC50 values (from the POC-log MLN4924 plot, IC50 is the concentration at 50% maximal possible response), apoptosis (measurement of activation of caspase 3 plotted against log of MLN4924 concentration, determined as the concentration for >5 fold induction), and mitotic activity (determined by measuring the fold increase of phospho-histone 3). A comparison of EC50 to IC50 (FIG. 3) allowed assignment of cell lines to sensitive, insensitive or resistant. Final identification of a cell line as sensitive or resistant was based on the EC50 values. The cutoff for sensitivity is a median EC50 of less than the median value of all POC's recorded in the panel (<0.36), borderline sensitivity was associated with median EC50 of 0.36 to 1.67 and insensitive or resistant cell lines were identified by EC50 greater than the 3rd quartile of all POC's in the panel (>1.67).

CAL-27 = settings: Homo sapiens; CAL-27 (upper aerodigestive tract); 72 hours
Experimental: as §1, §2

RL95-2 = RL95-2 (endometrium)
Experimental: as §1, §2

COLO320 HSR = settings: Homo sapiens, COLO-320-HSR; COLO320 HSR (intestine); 72 hours
Experimental: as §1, §2

T84 = settings: Homo sapiens; T84 (intestine); 72 hours
Experimental: as §1, §2

LS-174T = settings: Homo sapiens, LS174T; LS-174T (large_intestine); 72 hours
Experimental: as §1, §2

SW1417 = settings: Homo sapiens; SW1417 (intestine); 72 hours
Experimental: as §1, §2

NCl-H520 = NCl-H520 (lung NSCLC); 72 hours
Experimental: as §1, §2

CAL-62 = settings: Homo sapiens; CAL-62 (thyroid); 72 hours
Experimental: as §1, §2

NClH747 = NClH747 (intestine); 72 hours
Experimental: as §1, §2

YAPC = settings: Homo sapiens; YAPC (pancreas); 72 hours
Experimental: as §1, §2

BV-173 = BV-173 (haematopoietic, lymphoid_tissue)
Experimental: as §1, §2

FADU = settings: Homo sapiens; FADU (upper aerodigestive tract); 72 hours
Experimental: as §1, §2

LS1034 = settings: Homo sapiens, LS-1034; LS1034 (intestine); 72 hours
Experimental: as §1, §2

CAPAN-1 = settings: Homo sapiens; CAPAN-1 (pancreas); 72 hours
Experimental: as §1, §2

BxPC-3 = settings: Homo sapiens; BxPC-3 (pancreas); 72 hours
Experimental: as §1, §2

SW 1116 = settings: Homo sapiens; SW 1116 (intestine); 72 hours
Experimental: as §1, §2

647-V = settings: Homo sapiens; 647-V (urinary_tract); 72 hours
Experimental: as §1, §2

SKUT1 = settings: Homo sapiens, SK-UT-1; SKUT1 (smooth muscle); 72 hours
Experimental: as §1, §2

COLO-205 = settings: Homo sapiens; COLO-205 (intestine); 72 hours
Experimental: as §1, §2

SW954 = SW954 (vulva)
Experimental: as §1, §2

SW620 = settings: Homo sapiens, SW-620; SW620 (intestine); 72 hours
Experimental: as §1, §2

HT29 = settings: Homo sapiens; HT29 / HT-29 (intestine); 72 hours
Experimental: as §1, §2

MDA-MB-231 = settings: Homo sapiens; MDA-MB-231 (breast); 72 hours
Experimental: as §1, §2

MDA-MB-468 = settings: Homo sapiens; MDA-MB-468 (breast); 72 hours
Experimental: as §1, §2

ACHN = settings: Homo sapiens; ACHN (kidney); 72 hours
Experimental: as §1, §2

MIA-PaCa-2 = settings: Homo sapiens; MIA-PaCa-2 (pancreas); 72 hours
Experimental: as §1, §2

HCT-15 = settings: Homo sapiens; HCT-15 (intestine); 72 hours
Experimental: as §1, §2

Compound `NS(=O)(=O)OC[C@@H]1C[C@@H](n2ccc3c(N[C@H]4CCc5ccccc54)ncnc32)C[C@@H]1O` [MLN4924, ((1S,2S,4R)-4-{4-[(1S)-2,3-dihydro-1H-inden-1-ylamino]-7H-pyrrolo[2,3-d]pyrimidin-7-yl}-2-hydroxycyclopentyl)methyl sulphamate] has an EC50 (SW837) of 694 nM, an EC50 (CAL-27) of 139 nM and an EC50 (RL95-2; Homo sapiens, 72 hours) of 94 nM. For the same compound, the Phenotype (RL95-2; NF2 mutant) was “sensitive (The cutoff for sensitivity is a median EC50 of less than the median value of all POC's recorded in the panel (<0.36))”, the EC50 (COLO320 HSR) was 1780 nM and the EC50 (T84) was 556 nM. For the same compound, the EC50 (LS-174T) was 137 nM, the EC50 (SW1417) was 9030 nM and the EC50 (NCl-H520) was 261 nM. For the same compound, the EC50 (CAL-62) was 83.7 nM, the EC50 (NClH747) was 2070 nM and the EC50 (YAPC) was 234 nM. For the same compound, the Phenotype (BV-173; KDM6A mutant) was “sensitive (The cutoff for sensitivity is a median EC50 of less than the median value of all POC's recorded in the panel (<0.36))”, the EC50 (BV-173; Homo sapiens, 72 hours) was 131 nM and the EC50 (FADU) was 261 nM. The EC50 (LS1034) was 3760 nM, the EC50 (CAPAN-1) was 365 nM and the EC50 (BxPC-3) was 251 nM. The EC50 (SW 1116) was 10000 nM, the EC50 (647-V) was 283 nM and the EC50 (SKUT1) was 85.6 nM. For the same compound, the EC50 (COLO-205) was 92.3 nM, the EC50 (SW954; Homo sapiens, SW 954, 72 hours) was 324 nM and the Phenotype (SW954; SMAD4 mutant) was “sensitive (The cutoff for sensitivity is a median EC50 of less than the median value of all POC's recorded in the panel (<0.36))”. The EC50 (SW620) was 387 nM, the EC50 (HT29) was 250 nM and the EC50 (MDA-MB-231) was 871 nM. For the same compound, the EC50 (MDA-MB-468) was 26.7 nM, the EC50 (ACHN) was 652 nM and the EC50 (MIA-PaCa-2) was 239 nM. The EC50 (HCT-15) was 836 nM.

Reference: patent US20150119410A1, “BIOMARKERS OF RESPONSE TO NAE INHIBITORS” (MILLENNIUM PHARMACEUTICALS, INC., priority 2011, published 2015)
